# Key:
# Format in all cases: in vivo
# Plasmopara viticola = test: Test B: grape downy mildew, spray 24 h after inoculation (disease rating, 100 = 100% disease control); details: spray 24 h after inoculation
# Summary of the method: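 Grape seedlings were inoculated with Plasmopara viticola and held 24 h saturated at 20 °C, then sprayed to run-off with compound suspension (acetone/water with 250 ppm Trem 014; 200 ppm ≈ 500 g/ha). After 5 days at 20 °C and 24 h saturation, disease was rated from 0 to 100% control versus untreated.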
# Phytophthora infestans [1] = test: whole plant or invertebrate; details: tomato late blight, spray the day before inoculation
# Phytophthora infestans [2] = test: whole plant or invertebrate; details: tomato late blight, spray 17 h after inoculation
# [3] = system: Erysiphe graminis f. sp. tritici; test: Test E: wheat powdery mildew, spray the day before inoculation (disease rating, 100 = 100% disease control); details: spray the day before inoculation
# Summary of the method: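 Wheat seedlings sprayed to run-off with compound suspended in acetone/water 50/50 with 250 ppm Trem 014 (200 ppm equivalent to 500 g/ha); inoculated next day with Erysiphe graminis f. sp. tritici spore dust. Kept 7 days at 20° C, then rated 0–100% disease control versus controls.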
# [4] = compounds without asterisk (not 40 or 10 ppm)
Structure (SMILES),"Test B disease rating (100 = 100% disease control, 0 = no disease control) (Plasmopara viticola; [4]) [%]","Test C disease rating (100 = 100% disease control, 0 = no disease control) (Phytophthora infestans [1]; [4]) [%]","Test D disease rating (100 = 100% disease control, 0 = no disease control) (Phytophthora infestans [2]; [4]) [%]","Test E disease rating (100 = 100% disease control, 0 = no disease control) [3, 4] [%]","Test B disease rating (100 = 100% disease control, 0 = no disease control) (Plasmopara viticola; tested at 10 ppm) [%]","Test C disease rating (100 = 100% disease control, 0 = no disease control) (Phytophthora infestans [1]; tested at 10 ppm) [%]","Test D disease rating (100 = 100% disease control, 0 = no disease control) (Phytophthora infestans [2]; tested at 10 ppm) [%]","Test E disease rating (100 = 100% disease control, 0 = no disease control) ([3]; tested at 10 ppm) [%]",further results
CN(Cc1cccnc1)C(=O)c1csc(C2CCN(C(=O)Cc3cccc(C(F)(F)F)c3)CC2)n1 [compound 163],24,55,0,0,–,–,–,–,–
Cc1cccc(CC(=O)N2CCC(c3nc(C(=O)N(C)Cc4cccnc4)cs3)CC2)c1 [compound 164],1,60,0,0,–,–,–,–,–
Cc1cccc(CC(=O)N2CCC(c3nc(C(=O)N(C)Cc4ccccn4)cs3)CC2)c1 [compound 165],11,14,0,0,–,–,–,–,–
Cc1ccc(C)c(CC(=O)N2CCC(c3nc(C(=O)N(C)[C@H](C)C4CCCCC4)cs3)CC2)c1 [compound 166],34,68,16,0,–,–,–,–,–
CN(Cc1ccccn1)C(=O)c1csc(C2CCN(C(=O)Cc3cccc(C(F)(F)F)c3)CC2)n1 [compound 168],15,8,0,0,–,–,–,–,–
CN(Cc1ccncc1)C(=O)c1csc(C2CCN(C(=O)Cc3cccc(C(F)(F)F)c3)CC2)n1 [compound 169],8,68,0,0,–,–,–,–,–
Cc1cccc(CC(=O)N2CCC(c3nc(C(=O)N(C)Cc4ccncc4)cs3)CC2)c1 [compound 170],7,29,0,0,–,–,–,–,–
Cc1cc(C(F)(F)F)nn1CC(=O)N1CCC(c2nc(C(=O)N(C)C3CCOc4ccccc43)cs2)CC1 (stereo not drawn) [compound 179],–,–,–,–,96,100,87,0,–
Cc1cc(C(F)(F)F)nn1CC(=O)N1CCC(c2nc(C(=O)N(C)C3CCSc4ccccc43)cs2)CC1 (stereo not drawn) [compound 180],–,–,–,–,47,100,92,0,–
Cc1cc(C(F)(F)F)nn1CC(=O)N1CCC(c2nc(C(=O)N(C)C3CCCCc4ccccc43)cs2)CC1 (stereo not drawn) [compound 181],–,–,–,–,73,100,98,0,–
Cc1cc(C(F)(F)F)nn1CC(=O)N1CCC(c2nc(C(=O)N(C)C3CCCc4sccc43)cs2)CC1 (stereo not drawn) [compound 182],–,–,–,–,–,–,–,–,"Test B disease rating (100 = 100% disease control, 0 = no disease control) (Plasmopara viticola; tested at 40 ppm): 99%; Test C disease rating (100 = 100% disease control, 0 = no disease control) (Phytophthora infestans [1]; tested at 40 ppm): 100%; Test D disease rating (100 = 100% disease control, 0 = no disease control) (Phytophthora infestans [2]; tested at 40 ppm): 98%; Test E disease rating (100 = 100% disease control, 0 = no disease control) ([3]; tested at 40 ppm): 0%"
Cc1cc(C(F)(F)F)nn1CC(=O)N1CCC(c2nc(C(=O)N(C)C3CCCc4occc43)cs2)CC1 (stereo not drawn) [compound 183],–,–,–,–,0,40,16,0,–
Cc1cc(C(F)(F)F)nn1CC(=O)N1CCC(c2nc(C(=O)N(C)C3COc4ccccc43)cs2)CC1 (stereo not drawn) [compound 184],–,–,–,–,77,99,76,0,–
Cc1cc(C(F)(F)F)nn1CC(=O)N1CCC(c2nc(C(=O)N(C)C3CSCc4ccccc43)cs2)CC1 (stereo not drawn) [compound 185],–,–,–,–,99,100,98,0,–
Cc1cc(C(F)(F)F)nn1CC(=O)N1CCC(c2nc(C(=O)N(C)C3CCCCC3c3ccccc3)cs2)CC1 (stereo not drawn) [compound 186],–,–,–,–,0,97,58,0,–
Cc1cc(C(F)(F)F)nn1CC(=O)N1CCC(c2nc(C(=O)N(C)C3CCCc4c(O)cccc43)cs2)CC1 (stereo not drawn) [compound 189],93,100,99,0,–,–,–,–,–
Cc1cc(C(F)(F)F)nn1CC(=O)N1CCC(c2nc(C(=O)N(C)C3c4ccccc4CCC3O)cs2)CC1 (stereo not drawn) [compound 194],–,–,–,–,–,–,–,–,"Test B disease rating (100 = 100% disease control, 0 = no disease control) (Plasmopara viticola; tested at 40 ppm): 0%; Test C disease rating (100 = 100% disease control, 0 = no disease control) (Phytophthora infestans [1]; tested at 40 ppm): 98%; Test D disease rating (100 = 100% disease control, 0 = no disease control) (Phytophthora infestans [2]; tested at 40 ppm): 74%; Test E disease rating (100 = 100% disease control, 0 = no disease control) ([3]; tested at 40 ppm): 0%"
CC(=O)OC1CCc2ccccc2C1N(C)C(=O)c1csc(C2CCN(C(=O)Cn3nc(C(F)(F)F)cc3C)CC2)n1 (stereo not drawn) [compound 195],47,99,88,0,–,–,–,–,–
COc1cccc2c1CCCC2N(C)C(=O)c1csc(C2CCN(C(=O)Cn3nc(C(F)(F)F)cc3C)CC2)n1 (stereo not drawn) [compound 196],–,–,–,–,–,–,–,–,"Test B disease rating (100 = 100% disease control, 0 = no disease control) (Plasmopara viticola; tested at 40 ppm): 97%; Test C disease rating (100 = 100% disease control, 0 = no disease control) (Phytophthora infestans [1]; tested at 40 ppm): 100%; Test D disease rating (100 = 100% disease control, 0 = no disease control) (Phytophthora infestans [2]; tested at 40 ppm): 99%; Test E disease rating (100 = 100% disease control, 0 = no disease control) ([3]; tested at 40 ppm): 0%"
COc1ccc2c(c1)CCCC2N(C)C(=O)c1csc(C2CCN(C(=O)Cn3nc(C(F)(F)F)cc3C)CC2)n1 (stereo not drawn) [compound 197],–,–,–,–,–,–,–,–,"Test B disease rating (100 = 100% disease control, 0 = no disease control) (Plasmopara viticola; tested at 40 ppm): 98%; Test C disease rating (100 = 100% disease control, 0 = no disease control) (Phytophthora infestans [1]; tested at 40 ppm): 100%; Test D disease rating (100 = 100% disease control, 0 = no disease control) (Phytophthora infestans [2]; tested at 40 ppm): 99%; Test E disease rating (100 = 100% disease control, 0 = no disease control) ([3]; tested at 40 ppm): 0%"
COc1ccc2c(c1)C(N(C)C(=O)c1csc(C3CCN(C(=O)Cn4nc(C(F)(F)F)cc4C)CC3)n1)CCC2 (stereo not drawn) [compound 198],–,–,–,–,–,–,–,–,"Test B disease rating (100 = 100% disease control, 0 = no disease control) (Plasmopara viticola; tested at 40 ppm): 99%; Test C disease rating (100 = 100% disease control, 0 = no disease control) (Phytophthora infestans [1]; tested at 40 ppm): 100%; Test D disease rating (100 = 100% disease control, 0 = no disease control) (Phytophthora infestans [2]; tested at 40 ppm): 99%; Test E disease rating (100 = 100% disease control, 0 = no disease control) ([3]; tested at 40 ppm): 0%"

# — patent US8586611B2 (priority 2005, dated 2013)
